Results as given in PubChem BioAssay (NCI).
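GI50 = concentration required for 50% inhibition of growth. At the TGI there is no net growth.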

Experiments:
Assay in all cases: growth of human tumour cells (NCI), 384-well format
[1] = system: KM12 colon
[2] = system: PC-3 prostate
[3] = system: COLO 205 colon
[4] = system: SN12C renal
[5] = system: LOX IMVI melanoma
[6] = system: HOP-92 NSCLC
[7] = system: HOP-62 NSCLC
[8] = system: DU-145 prostate
[9] = system: A549 NSCLC
[10] = system: SK-MEL-28 melanoma
[11] = system: HCT-116 colon
[12] = system: HCC-2998 colon
[13] = system: SW-620 colon
[14] = system: U251 glioblastoma
[15] = system: SK-OV-3 ovarian
[16] = system: RPMI-8226 leukemia
[17] = system: EKVX NSCLC
[18] = system: A498 renal
[19] = system: SF-268 CNS
[20] = system: TK-10 renal
[21] = system: OVCAR-8 ovarian
[22] = system: OVCAR-3 ovarian
[23] = system: HT29 colon
[24] = system: UO-31 renal
[25] = system: MCF7 breast
[26] = system: ACHN renal
[27] = system: K-562 leukemia
[28] = system: T-47D breast
[29] = system: HCT-15 colon
[30] = system: MOLT-4 leukemia
[31] = system: NCI-H522 lung
[32] = system: NCI-H23 lung
[33] = system: MDA-MB-231 breast
[34] = system: OVCAR-4 ovarian
[35] = system: HL-60(TB) leukemia
[36] = system: CCRF-CEM leukemia
[37] = system: UACC-62 melanoma
[38] = system: NCI-H322M lung
[39] = system: RXF 393 renal
[40] = system: SF-295 CNS
[41] = system: BT-549 breast
[42] = system: SF-539 CNS
[43] = system: HS 578T breast
[44] = system: IGROV1 ovarian
[45] = system: CAKI-1 renal
[46] = system: MDA-MB-435 melanoma
[47] = system: 786-0 renal
[48] = system: NCI-H460 NSCLC
[49] = system: NCI-H226 lung
[50] = system: SNB-19 CNS
[51] = system: MDA-MB-468 breast
[52] = system: NCI/ADR-RES ovarian
[53] = system: MALME-3M melanoma
[54] = system: SNB-75 CNS
[55] = system: M14 melanoma

## FC(F)(F)c1ccc(Nc2nc(-c3c(C(F)(F)F)nc4ccccn34)cs2)cc1
[1]
  GI50: 24.4 nM
  TGI: 1080 nM
[2]
  GI50: 32.6 nM
  TGI: 1820 nM
[3]
  GI50: 26.5 nM
  TGI: 67.1 nM
[4]
  GI50: 38.6 nM
  TGI: 2400 nM
[5]
  GI50: 48.4 nM
  TGI: 2210 nM
[6]
  GI50: 41.1 nM
  TGI: 2970 nM
[7]
  GI50: 33.5 nM
  TGI: 1440 nM
[8]
  GI50: 32.8 nM
  TGI: 1370 nM
[9]
  GI50: 61.9 nM
  TGI: 3740 nM
[10]
  GI50: 52.1 nM
  TGI: 5080 nM
[11]
  GI50: 32.8 nM
  TGI: 1440 nM
[12]
  GI50: 32.1 nM
  TGI: 375 nM
[13]
  GI50: 33.9 nM
  TGI: 2600 nM
[14]
  GI50: 42.4 nM
  TGI: 1490 nM
[15]
  GI50: 34.8 nM
  TGI: 1660 nM
[16]
  GI50: 18.3 nM
  TGI: 36.8 nM
[17]
  GI50: 43.2 nM
  TGI: 2390 nM
[18]
  GI50: 32.7 nM
  TGI: 1240 nM
[19]
  GI50: 35.4 nM
  TGI: 1430 nM
[20]
  GI50: 69.3 nM
  TGI: 5310 nM
[21]
  GI50: 35.7 nM
  TGI: 1150 nM
[22]
  GI50: 16.6 nM
  TGI: 39.1 nM
[23]
  GI50: 23.8 nM
  TGI: 52.5 nM
[24]
  GI50: 42.2 nM
  TGI: 3420 nM
[25]
  GI50: 30.3 nM
  TGI: 1450 nM
[26]
  GI50: 88.9 nM
  TGI: 3190 nM
[27]
  GI50: 27.6 nM
  TGI: 89.8 nM
[28]
  GI50: 28.9 nM
  TGI: 3230 nM
[29]
  GI50: 32.4 nM
  TGI: 1320 nM
[30]
  GI50: 18.9 nM
  TGI: 37.4 nM
[31]
  GI50: 16.7 nM
  TGI: 36.6 nM
[32]
  GI50: 26.4 nM
  TGI: 89.6 nM
[33]
  GI50: 52.4 nM
  TGI: 4690 nM
[34]
  GI50: 1000 nM
  TGI: 4460 nM
[35]
  GI50: 14.7 nM
  TGI: 28.4 nM
[36]
  GI50: 19.6 nM
  TGI: 36.9 nM
[37]
  GI50: 27.5 nM
  TGI: 1590 nM
[38]
  GI50: 50.4 nM
  TGI: 2560 nM
[39]
  GI50: 13.4 nM
  TGI: 42.8 nM
[40]
  GI50: 32.1 nM
  TGI: 356 nM
[41]
  GI50: 39.1 nM
  TGI: 1240 nM
[42]
  GI50: 35.7 nM
  TGI: 179 nM
[43]
  GI50: 17.2 nM
  TGI: 37.5 nM
[44]
  GI50: 73.2 nM
  TGI: 7330 nM
[45]
  GI50: 26.4 nM
  TGI: 1850 nM
[46]
  GI50: 12.8 nM
  TGI: 33.2 nM
[47]
  GI50: 32.7 nM
  TGI: 1220 nM
[48]
  GI50: 30.2 nM
  TGI: 83.3 nM
[49]
  GI50: 30.2 nM
  TGI: 86.7 nM
[50]
  GI50: 47.1 nM
  TGI: 1960 nM
[51]
  GI50: 161 nM
  TGI: 310 nM
[52]
  GI50: 19.5 nM
  TGI: 42.4 nM
[53]
  GI50: 32 nM
  TGI: 6490 nM
[54]
  GI50: 22.1 nM
  TGI: 78.7 nM
[55]
  GI50: 25.2 nM
  TGI: 88.5 nM
